According to PMC10926851 (Journal of medicinal chemistry, 2021):
“Also recorded” adds a separate entry of the source. Like-named read-outs stand apart in the source and are kept apart here. One block for each compound: values may come before it.

Assays:
[1] = molecular target: HDAC4 (Homo sapiens, UniProt P56524); assay: HDAC4 activity assay; type: biochemical; settings: HDAC4 vs HDAC8
[2] = test system: CEM (T cell leukemia) xenografts; settings: mouse, in vivo
[3] = test system: HeLa (cervical adenocarcinoma); settings: for SCI (CC50 HS-27/CC50 cancer), HeLa: selective cytotoxicity index
[4] = test system: CCRF-CEM (T-cell leukemia); settings: for SCI (CC50 HS-27/CC50 cancer), CEM: selective cytotoxicity index; for cytotoxicity at 50 μM, CEM (printed in CC50 column): 72 h
[5] = test system: Ramos (Burkitt's B-cell lymphoma); settings: selective cytotoxicity index
[6] = test system: CCRF-CEM cells; assay: Western blotting; type: cell-based, human; settings: 10 μM, 5 h
[7] = test system: HS-27 (normal foreskin fibroblasts); assay: DNS cytotoxicity assay, HS-27; type: cell-based, human; settings: 72 h, noncancerous cells
[8] = molecular target: T1, HDAC8 (Homo sapiens, UniProt Q9BY41); assay: HDAC8 activity assay; type: biochemical; settings: at tested concentrations
T1 sequence (Q9BY41 1-377): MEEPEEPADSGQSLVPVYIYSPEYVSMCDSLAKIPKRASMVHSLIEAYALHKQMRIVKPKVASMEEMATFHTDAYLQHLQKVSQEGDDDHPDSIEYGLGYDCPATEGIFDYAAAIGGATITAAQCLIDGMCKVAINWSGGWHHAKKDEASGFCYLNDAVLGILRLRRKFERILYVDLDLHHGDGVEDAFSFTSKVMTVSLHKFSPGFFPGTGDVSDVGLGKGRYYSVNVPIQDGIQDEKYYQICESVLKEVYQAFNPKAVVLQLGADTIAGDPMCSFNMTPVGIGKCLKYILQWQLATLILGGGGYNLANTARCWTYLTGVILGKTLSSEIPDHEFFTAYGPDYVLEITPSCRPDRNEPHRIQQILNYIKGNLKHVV

[9] = test system: HeLa (cervical adenocarcinoma); assay: cells; settings: Homo sapiens, 72 h, read-out: % cell death at 10 μM, HeLa
[10] = molecular target: T2, PPARγ (Homo sapiens, UniProt P37231); assay: PPARγ-GAL4 transactivation assay on HepG2 cells; type: cell-based; settings: HepG2, 25, 5 and 1 μM
T2 sequence (P37231 238-503 limits assumed): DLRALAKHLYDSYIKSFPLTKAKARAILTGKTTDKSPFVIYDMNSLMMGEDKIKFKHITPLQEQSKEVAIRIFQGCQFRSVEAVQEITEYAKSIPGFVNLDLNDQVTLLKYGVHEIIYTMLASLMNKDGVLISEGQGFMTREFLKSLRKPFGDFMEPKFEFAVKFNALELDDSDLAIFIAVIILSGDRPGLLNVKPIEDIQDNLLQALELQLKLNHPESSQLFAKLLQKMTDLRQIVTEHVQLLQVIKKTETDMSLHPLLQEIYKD

HDAC4, sequence (P56524 655-1084 limits assumed): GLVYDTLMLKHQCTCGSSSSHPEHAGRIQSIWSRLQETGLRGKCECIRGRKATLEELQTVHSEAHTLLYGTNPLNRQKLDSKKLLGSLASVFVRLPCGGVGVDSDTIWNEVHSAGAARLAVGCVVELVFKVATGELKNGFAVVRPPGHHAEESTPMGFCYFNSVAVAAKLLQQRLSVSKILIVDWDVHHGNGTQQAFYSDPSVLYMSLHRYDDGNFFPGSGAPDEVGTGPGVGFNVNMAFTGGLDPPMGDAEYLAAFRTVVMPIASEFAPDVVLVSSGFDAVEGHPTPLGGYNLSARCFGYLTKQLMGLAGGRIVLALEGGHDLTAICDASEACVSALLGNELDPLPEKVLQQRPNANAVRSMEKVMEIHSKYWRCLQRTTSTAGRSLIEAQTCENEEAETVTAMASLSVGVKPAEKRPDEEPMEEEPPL

potency toward HDAC4 over HDAC8 (from IC50 values) [1]: at least 2 fold
SMILES: O=C(COc1ccc2cc(/C=C3/SC(=O)NC3=O)ccc2c1)Nc1ccccc1 [7a, 2-((6-((2,4-Dioxothiazolidin-5-ylidene)methyl)naphthalen-2-yl)-oxy)-N-phenylacetamide]

potency toward HDAC4 over HDAC8 (from IC50 values) [1]: at least 2 fold
SMILES: O=C(COc1ccc2cc(/C=C3/SC(=O)NC3=O)ccc2c1)Nc1ccc(F)cc1 [7b, 2-((6-((2,4-Dioxothiazolidin-5-ylidene)methyl)naphthalen-2-yl)-oxy)-N-(4-fluorophenyl)acetamide]

HDAC8 inhibition (in words) [8]: inactive; also recorded: not active
SMILES: O=C(COc1ccc2cc(/C=C3/SC(=O)NC3=O)ccc2c1)Nc1ccc(Cl)c(Cl)c1 [7h, N-(3,4-Dichlorophenyl)-2-((6-((2,4-dioxothiazolidin-5-ylidene)-methyl)naphthalen-2-yl)oxy)acetamide]

HDAC8 inhibition (in words) [8]: inactive
SMILES: O=C(COc1ccc2cc(/C=C3/SC(=O)NC3=O)ccc2c1)Nc1ccc(F)cc1F [7k, N-(2,4-Difluorophenyl)-2-((6-((2,4-dioxothiazolidin-5-ylidene)-methyl)naphthalen-2-yl)oxy)acetamide]

potency toward HDAC4 over HDAC8 (from IC50 values) [1]: at least 2 fold
SMILES: Cc1cccc(NC(=O)COc2ccc3cc(/C=C4/SC(=O)NC4=O)ccc3c2)n1 [7n, 2-((6-((2,4-Dioxothiazolidin-5-ylidene)methyl)naphthalen-2-yl)-oxy)-N-(6-methylpyridin-2-yl)acetamide]

HDAC8 inhibition (in words) [8]: did not show HDAC8 inhibition
SMILES: O=C(COc1ccc2cc(/C=C3/SC(=O)NC3=O)ccc2c1)Nc1cc(Cl)cc(C(F)(F)F)c1 [7p, N-(3-Chloro-5-(trifluoromethyl)phenyl)-2-((6-((2,4-dioxothiazoli-din-5-ylidene)methyl)naphthalen-2-yl)oxy)acetamide]

HDAC8 inhibition (in words) [8]: inactive
SMILES: O=C(COc1ccc2cc(/C=C3/SC(=O)NC3=O)ccc2c1)Nc1ccc(Br)cc1F [7r, N-(4-Bromo-2-fluorophenyl)-2-((6-((2,4-dioxothiazolidin-5-ylidene)methyl)naphthalen-2-yl)oxy)acetamide]

potency toward HDAC4 over HDAC8 (from IC50 values) [1]: at least 2 fold
SMILES: O=C(COc1ccc2cc(/C=C3/SC(=O)NC3=O)ccc2c1)Nc1cccc(F)n1 [7s, 2-((6-((2,4-Dioxothiazolidin-5-ylidene)methyl)naphthalen-2-yl)-oxy)-N-(6-fluoropyridin-2-yl)acetamide]

HDAC8 inhibition (in words) [8]: not active
SMILES: Cc1ccc(NC(=O)COc2ccc3cc(/C=C4/SC(=O)NC4=O)ccc3c2)cc1Cl [7u, N-(3-Chloro-4-methylphenyl)-2-((6-((2,4-dioxothiazolidin-5-ylidene)methyl)naphthalen-2-yl)oxy)acetamide]

PPARγ transactivation activity (in words) [10]: poor activity
HDAC8 inhibition (in words) [8]: not active
SMILES: O=C(COc1ccc2cc(/C=C3/SC(=O)NC3=O)ccc2c1)Nc1ccc(Br)c(Br)c1 [7v, N-(3,4-Dibromophenyl)-2-((6-((2,4-dioxothiazolidin-5-ylidene)-methyl)naphthalen-2-yl)oxy)acetamide]

potency toward HDAC4 over HDAC8 (from IC50 values) [1]: at least 2 fold
SMILES: O=C(COc1ccc2cc(/C=C3/SC(=O)NC3=O)ccc2c1)Nc1nc2ccccc2s1 [7w, N-(Benzo[d]thiazol-2-yl)-2-((6-((2,4-dioxothiazolidin-5-ylidene)-methyl)naphthalen-2-yl)oxy)acetamide]

potency toward HDAC4 over HDAC8 (from IC50 values) [1]: at least 2 fold
SMILES: Cc1cccc2sc(NC(=O)COc3ccc4cc(/C=C5/SC(=O)NC5=O)ccc4c3)nc12 [7x, 2-((6-((2,4-Dioxothiazolidin-5-ylidene)methyl)naphthalen-2-yl)-oxy)-N-(4-methylbenzo[d]thiazol-2-yl)acetamide]

potency toward HDAC4 over HDAC8 (from IC50 values) [1]: at least 2 fold
SMILES: CCOc1ccc2nc(NC(=O)COc3ccc4cc(/C=C5/SC(=O)NC5=O)ccc4c3)sc2c1 [7y, 2-((6-((2,4-Dioxothiazolidin-5-ylidene)methyl)naphthalen-2-yl)-oxy)-N-(6-ethoxybenzo[d]thiazol-2-yl)acetamide]

Further lines, the compound ahead of its results:

SMILES: Cc1ccc(NC(=O)COc2ccc3cc(/C=C4/SC(=O)NC4=O)ccc3c2)cc1 [7c, 2-((6-((2,4-Dioxothiazolidin-5-ylidene)methyl)naphthalen-2-yl)-oxy)-N-(p-tolyl)acetamide]
body weights of the mice [2]: not significantly affected
SCI (CC50 HS-27/CC50 cancer), HeLa [3]: 3.9
SCI (CC50 HS-27/CC50 cancer), CEM [4]: 14.4
SCI (CC50 HS-27/CC50 cancer), Ramos [5]: 5.8
p53 expression [6]: no upregulated expression was observed
c-Myc protein expression ([6]; vs pioglitazone 10 μM): downregulation of the c-Myc protein much greater than positive control pioglitazone
cleaved caspase-3 expression ([6]; vs pioglitazone 10 μM): increased expression of cleaved caspase-3

SMILES: O=C(COc1ccc2cc(/C=C3/SC(=O)NC3=O)ccc2c1)Nc1cccc(C(F)(F)F)c1 [7e, 2-((6-((2,4-Dioxothiazolidin-5-ylidene)methyl)naphthalen-2-yl)-oxy)-N-(3-(trifluoromethyl)phenyl) acetamide]
% cell death at 10 μM, HS-27 [7]: >40%
HDAC8 inhibition (in words) [8]: did not show HDAC8 inhibition

SMILES: O=C(COc1ccc2cc(/C=C3/SC(=O)NC3=O)ccc2c1)Nc1cccc(Cl)c1 [7f, N-(3-Chlorophenyl)-2-((6-((2,4-dioxothiazolidin-5-ylidene)-methyl)naphthalen-2-yl)oxy)acetamide]
SCI (CC50 HS-27/CC50 cancer), Ramos [5]: >10
HDAC8 inhibition (in words) [8]: did not show HDAC8 inhibition

SMILES: COc1cccc(NC(=O)COc2ccc3cc(/C=C4/SC(=O)NC4=O)ccc3c2)c1 [7g, 2-((6-((2,4-Dioxothiazolidin-5-ylidene)methyl)naphthalen-2-yl)-oxy)-N-(3-methoxyphenyl)acetamide]
potency toward HDAC4 over HDAC8 (from IC50 values) [1]: at least 2 fold
SCI (CC50 HS-27/CC50 cancer), HeLa [3]: >10
SCI (CC50 HS-27/CC50 cancer), Ramos [5]: >10
cytotoxicity at 10 µM [9]: > 40%

SMILES: O=C(COc1ccc2cc(/C=C3/SC(=O)NC3=O)ccc2c1)Nc1c(F)cc(F)cc1Br [7i, N-(2-Bromo-4,6-difluorophenyl)-2-((6-((2,4-dioxothiazolidin-5-ylidene)methyl)naphthalen-2-yl)oxy)acetamide]
SCI (CC50 HS-27/CC50 cancer), HeLa [3]: 3.8
SCI (CC50 HS-27/CC50 cancer), CEM [4]: 4.2
SCI (CC50 HS-27/CC50 cancer), Ramos [5]: 4.2
HDAC8 inhibition (in words) [8]: inactive

SMILES: O=C(COc1ccc2cc(/C=C3/SC(=O)NC3=O)ccc2c1)Nc1ccccc1Oc1ccccc1 [7j, 2-((6-((2,4-Dioxothiazolidin-5-ylidene)methyl)naphthalen-2-yl)-oxy)-N-(2-phenoxyphenyl)acetamide]
SCI (CC50 HS-27/CC50 cancer), HeLa [3]: >10
SCI (CC50 HS-27/CC50 cancer), Ramos [5]: >10
cytotoxicity at 10 µM [9]: > 40%
% cell death at 10 μM, HS-27 [7]: 0%

SMILES: Cc1cc(Br)ccc1NC(=O)COc1ccc2cc(/C=C3/SC(=O)NC3=O)ccc2c1 [7l, N-(4-Bromo-2-methylphenyl)-2-((6-((2,4-dioxothiazolidin-5-ylidene)methyl)naphthalen-2-yl)oxy)acetamide]
SCI (CC50 HS-27/CC50 cancer), HeLa [3]: >10

SMILES: O=C(COc1ccc2cc(/C=C3/SC(=O)NC3=O)ccc2c1)Nc1ccc(Br)cc1 [7o, N-(4-Bromophenyl)-2-((6-((2,4-dioxothiazolidin-5-ylidene)-methyl)naphthalen-2-yl)oxy)acetamide]
SCI (CC50 HS-27/CC50 cancer), HeLa [3]: >10

SMILES: CCc1ccc(CCOc2ccc(CC3SC(=O)NC3=O)cc2)nc1 (stereo not shown) [Pioglitazone, reference compound]
cytotoxicity at 10 μM, HeLa (printed in CC50 column) ([3]; 10 μM, 72 h): 0% @ 10 μM
cytotoxicity at 50 μM, CEM (printed in CC50 column) [4]: 0% @ 50 μM
cytotoxicity at 50 μM, CEM (printed in CC50 column) ([4]; listed as pioglitazone): no cytotoxic effect

SMILES: COc1cccc2c1C(=O)c1c(O)c3c(c(O)c1C2=O)C[C@@](O)(C(=O)CO)C[C@@H]3O[C@H]1C[C@H](N)[C@H](O)[C@H](C)O1 [doxorubicin, reference compound]
body weights of the mice [2]: not significantly affected
